From patent US20260256792A1, “TREATMENT OF CHRONIC SPONTANEOUS URTICARIA BY ADMINISTERING (R)-2-[3-[4-AMINO-3-(2-FLUORO-4-PHENOXY-PHENYL)PYRAZOLO[3,4-D]PYRIMIDIN-1-YL]PIPERIDINE-1-CARBONYL]-4-METHYL-4-[4-(OXETAN-3-YL)PIPERAZIN-1-YL]PENT-2-ENENITRILE” (priority 2023, published 2026)

Tested on: moderate-to-severe chronic spontaneous urticaria (CSU)
Assay: Phase 2 CSU study: urticaria activity score over 7 days (UAS7)
Type: in vivo, human
Set-up: key to UAS7 Median / UAS7 Change from baseline Median / UAS7 change from baseline, Q1 / UAS7 change from baseline, Q3 / UAS7 change from baseline, Max / UAS7 Change from baseline LS Mean (SE): UAS7 points; daily UAS score ranges 0–6 points/day, over 7 days
Details: for RRD (%) for rilzabrutinib vs. placebo, UAS7 = 0 / RRD (%) for rilzabrutinib vs. placebo, UAS7 ≤6 / Responder n (%), UAS7 = 0 / Responder n (%), UAS7 ≤6 / Imputed non-responder n (%), UAS7 = 0 / Imputed non-responder n (%), UAS7 ≤6 / Non-responder n (%), UAS7 = 0 / Non-responder n (%), UAS7 ≤6 / OR for rilzabrutinib vs. placebo, UAS7 = 0 / OR for rilzabrutinib vs. placebo, UAS7 ≤6: Omalizumab-naïve, 400 mg TID; for Non-responder, UAS7 reduction from baseline of 10 points or more / OR for rilzabrutinib vs. placebo, UAS7 reduction of 10 points or more / RRD (%) for rilzabrutinib vs. placebo, UAS7 reduction of 10 points or more / Responder, UAS7 reduction from baseline of 10 points or more / UAS7 Change from baseline Mean (SD) / UAS7 Change from baseline Median / UAS7 Mean (SD) / UAS7 Median / UAS7 Percent change from baseline Mean (SD) / UAS7 Percent change from baseline Median: Week 1
From the text: The study comprises a 12 week, randomized, double-blind, placebo-controlled, multi-center, dose-ranging efficacy and safety phase, followed by a 40 week open label extension (OLE) phase (see FIG. 1). The study consists of three phases and an optional OLE phase. […] Clinically, CSU is characterized by the spontaneous and recurrent appearance of pruritic hives. The proposed primary endpoints were the UAS7 at Week 12 in EU and EU reference countries and the ISS7 in the US. Regardless of where a participant was from, all assessments were the same. The UAS7 score is a composite score containing both the HSS7 and the ISS7. This allowed a global assessment of the two key components of urticaria: hives and itch. […] The UAS is a validated PRO measure. […] The daily UAS scores range from 0 to 6 point/day. […] Patients were to complete the UAS using the e-diary. […] The following secondary endpoints were to be analyzed using the same approach as for the primary endpoint: • Change from baseline in UAS7 at Week 4 • Change from baseline in UAS7 at Week 12 (for US and US reference countries) • Change from baseline in ISS7 at Week 12 (except US and US reference countries) • Change from baseline in HSS7 at Week 12 The following responder secondary endpoints were to be analyzed using the Cochran-Mantel-Haenszel test adjusted by region: • Proportion of participants with UAS7<6 at Week 12 • Proportion of participants with UAS7=0 at Week 12 Participants who received selected prohibited medications and/or rescue medications were to be considered as non-responders for time points after the medication usage. For other participants, all available data including those collected during the off-treatment period were to be used to determine the responder/non-responder status. Missing data were to be considered as non-responders.

[1] = 400 mg BID, Prior Omalizumab Use
[2] = 400 mg BID, omalizumab-naive participants
[3] = 400 mg QPM, Prior Omalizumab Use

In the case of `CC(C)(C=C(C#N)C(=O)N1CCC[C@@H](n2nc(-c3ccc(Oc4ccccc4)cc3F)c3c(N)ncnc32)C1)N1CCN(C2COC2)CC1` [rilzabrutinib, (R)-2-[3-[4-amino-3-(2-fluoro-4-phenoxy-phenyl)pyrazolo[3,4-d]pyrimidin-1-yl]piperidine-1-carbonyl]-4-methyl-4-[4-(oxetan-3-yl)piperazin-1-yl]pent-2-enenitrile], the “RRD (%) for rilzabrutinib vs. placebo, UAS7 = 0” value (“RRD (%) … UAS7 = 0” for short) (Week 9) is reported as −0.9 %, the “RRD (%) for rilzabrutinib vs. placebo, UAS7 ≤6” value (shortened to “RRD (%) … UAS7 ≤6”) (Week 9) is reported as 16.7 % and the “Responder n (%), UAS7 = 0” value (Week 9) is reported as 3 (8.6) n (%). For the same molecule, the “Responder n (%), UAS7 ≤6” value (Week 9) was 11 (31.4) n (%), the “Imputed non-responder n (%), UAS7 = 0” value (Week 10) was 5 (14.3) n (%) and the “Imputed non-responder n (%), UAS7 ≤6” value (Week 10) was 5 (14.3) n (%). For the same molecule, the “Non-responder n (%), UAS7 = 0” value (Week 10) was 31 (88.6) n (%), the “Non-responder n (%), UAS7 ≤6” value (Week 10) was 25 (71.4) n (%) and the “OR for rilzabrutinib vs. placebo, UAS7 = 0” value (Week 10) was 0.819. For the same molecule, the “OR for rilzabrutinib vs. placebo, UAS7 ≤6” value (Week 10) was 2.241, the “RRD (%) … UAS7 = 0” value (Week 10) was −1.7 % and the “RRD (%) … UAS7 ≤6” value (Week 10) was 12.1 %. For the same molecule, the “Responder n (%), UAS7 = 0” value (Week 10) was 4 (11.4) n (%), the “Responder n (%), UAS7 ≤6” value (Week 10) was 10 (28.6) n (%) and the “Imputed non-responder n (%), UAS7 = 0” value (Week 11) was 4 (11.4) n (%). The “Imputed non-responder n (%), UAS7 ≤6” value (Week 11) was 4 (11.4) n (%), the “Non-responder n (%), UAS7 = 0” value (Week 11) was 31 (88.6) n (%) and the “Non-responder n (%), UAS7 ≤6” value (Week 11) was 24 (68.6) n (%). The “OR for rilzabrutinib vs. placebo, UAS7 = 0” value (Week 11) was 1.846, the “OR for rilzabrutinib vs. placebo, UAS7 ≤6” value (Week 11) was 1.971 and the “RRD (%) … UAS7 = 0” value (Week 11) was 4.3 %. The “RRD (%) … UAS7 ≤6” value (Week 11) was 11.2 %, the “Responder n (%), UAS7 = 0” value (Week 11) was 4 (11.4) n (%) and the “Responder n (%), UAS7 ≤6” value (Week 11) was 11 (31.4) n (%). For the same molecule, the “Imputed non-responder n (%), UAS7 = 0” value (Week 12) was 8 (22.9) n (%), the “Imputed non-responder n (%), UAS7 ≤6” value (Week 12) was 8 (22.9) n (%) and the “Non-responder n (%), UAS7 = 0” value (Week 12) was 28 (80.0) n (%). The “Non-responder n (%), UAS7 ≤6” value (Week 12) was 23 (65.7) n (%), the “OR for rilzabrutinib vs. placebo, UAS7 = 0” value (Week 12) was 1.800 and the “OR for rilzabrutinib vs. placebo, UAS7 ≤6” value (Week 12) was 3.980. The “RRD (%) … UAS7 = 0” value (Week 12) was 6.9 %, the “RRD (%) … UAS7 ≤6” value (Week 12) was 20.3 % and the “Responder n (%), UAS7 = 0” value (Week 12) was 7 (20.0) n (%). For the same molecule, the “Responder n (%), UAS7 ≤6” value (Week 12) was 12 (34.3) n (%), the “Non-responder, UAS7 reduction from baseline of 10 points or more” value (shortened to “Non-responder, UAS7 reduction”) (400 mg BID, ITT population) was 23 (56.1) n (%) and the “OR for rilzabrutinib vs. placebo, UAS7 reduction of 10 points or more” value (400 mg BID, ITT population) was 2.607. The “RRD (%) for rilzabrutinib vs. placebo, UAS7 reduction of 10 points or more” value (400 mg BID, ITT population) was 20.0 %, the “Responder, UAS7 reduction from baseline of 10 points or more” value (400 mg BID, ITT population) was 18 (43.9) n (%) and the “UAS7 Change from baseline Mean (SD)” value (400 mg BID, Omalizumab-Naïve) was −9.96 (8.81). For the same molecule, the “UAS7 Change from baseline Median” value (400 mg BID, Omalizumab-Naïve) was −9.00, the “UAS7 Mean (SD)” value (400 mg BID, Omalizumab-Naïve) was 19.77 (11.32) and the “UAS7 Median” value (400 mg BID, Omalizumab-Naïve) was 21.00. The “UAS7 Percent change from baseline Mean (SD)” value (“UAS7 Percent change … (SD)” for short) (400 mg BID, Omalizumab-Naïve) was −35.41 (33.69) %, the “UAS7 Percent change from baseline Median” value (400 mg BID, Omalizumab-Naïve) was −26.19% and the “UAS7 Change from baseline Mean (SD)” value [1] was −11.83 (12.14). The “UAS7 Change from baseline Median” value [1] was −7.50, the “UAS7 Median” value [1] was 23.50 and the “UAS7 Percent change … (SD)” value [1] was −35.59 (37.55) %. The “UAS7 Percent change from baseline Median” value [1] was −20.53%, the “Non-responder, UAS7 reduction” value [2] was 19 (54.3) n (%) and the “OR for rilzabrutinib vs. placebo, UAS7 reduction of 10 points or more” value [2] was 2.862. The “RRD (%) for rilzabrutinib vs. placebo, UAS7 reduction of 10 points or more” value [2] was 22.3 %, the “Responder, UAS7 reduction from baseline of 10 points or more” value [2] was 16 (45.7) n (%) and the “Non-responder, UAS7 reduction” value (400 mg QPM, ITT population) was 26 (68.4) n (%). For the same molecule, the “OR for rilzabrutinib vs. placebo, UAS7 reduction of 10 points or more” value (400 mg QPM, ITT population) was 1.672, the “Responder, UAS7 reduction from baseline of 10 points or more” value (400 mg QPM, ITT population) was 12 (31.6) n (%) and the “UAS7 Change from baseline Mean (SD)” value (400 mg QPM, Omalizumab-Naïve) was −7.30 (9.14). The “UAS7 Change from baseline Median” value (400 mg QPM, Omalizumab-Naïve) was −6.00, the “UAS7 Mean (SD)” value (400 mg QPM, Omalizumab-Naïve) was 23.81 (8.78) and the “UAS7 Median” value (400 mg QPM, Omalizumab-Naïve) was 25.00. For the same molecule, the “UAS7 Percent change … (SD)” value (400 mg QPM, Omalizumab-Naïve) was −21.72 (26.65) %, the “UAS7 Percent change from baseline Median” value (400 mg QPM, Omalizumab-Naïve) was −17.95% and the “UAS7 Change from baseline Mean (SD)” value [3] was −16.00 (NC). For the same molecule, the “UAS7 Change from baseline Median” value [3] was −16.00, the “UAS7 Mean (SD)” value [3] was 25.00 (NC) and the “UAS7 Median” value [3] was 25.00.
